Assay results reported in US20220259221A1, “CANNABINOID DERIVATIVES” (CANOPY GROWTH CORPORATION, priority 2019, published 2022).
pEC50, pIC50: −log10 of the molar value.

Tests used:
[1] = biological target: T1, human CB1 receptor (Homo sapiens, UniProt P21554); experiment: biochemical; format: binding; parameters: host or cells: CHO-K1 (Chinese hamster ovary) cells, stably transfected; membranes prepared in house; conditions: for Selectivity CB1: fold difference in binding between CB1 and CB2, shown in the column of the receptor with higher affinity, 1.00 in both = about the same affinity
T1 sequence (P21554 whole entry): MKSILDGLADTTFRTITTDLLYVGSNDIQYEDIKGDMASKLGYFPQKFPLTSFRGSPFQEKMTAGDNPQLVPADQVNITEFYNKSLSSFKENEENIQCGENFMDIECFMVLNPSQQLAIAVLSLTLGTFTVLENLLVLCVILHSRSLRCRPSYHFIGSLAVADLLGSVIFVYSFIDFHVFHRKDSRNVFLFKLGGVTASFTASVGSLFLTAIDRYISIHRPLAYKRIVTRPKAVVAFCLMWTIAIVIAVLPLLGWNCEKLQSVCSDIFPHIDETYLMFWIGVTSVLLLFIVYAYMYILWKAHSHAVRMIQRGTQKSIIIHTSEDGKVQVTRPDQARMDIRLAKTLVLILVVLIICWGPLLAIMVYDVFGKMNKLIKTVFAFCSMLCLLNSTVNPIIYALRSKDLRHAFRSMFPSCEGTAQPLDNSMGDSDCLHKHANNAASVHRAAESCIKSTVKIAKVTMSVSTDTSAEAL

[2] = biological target: T2, human CB2 receptor (Homo sapiens, UniProt P34972); experiment: CB2 radioligand ([3H]CP55,940) competitive binding assay; conditions: for Selectivity CB2: fold difference in binding between CB1 and CB2, shown in the column of the receptor with higher affinity, 1.00 in both = about the same affinity
T2 construct: host or cells: CHO-K1 (Chinese hamster ovary) cells, stably transfected; membranes prepared in house
T2 sequence (P34972 whole entry): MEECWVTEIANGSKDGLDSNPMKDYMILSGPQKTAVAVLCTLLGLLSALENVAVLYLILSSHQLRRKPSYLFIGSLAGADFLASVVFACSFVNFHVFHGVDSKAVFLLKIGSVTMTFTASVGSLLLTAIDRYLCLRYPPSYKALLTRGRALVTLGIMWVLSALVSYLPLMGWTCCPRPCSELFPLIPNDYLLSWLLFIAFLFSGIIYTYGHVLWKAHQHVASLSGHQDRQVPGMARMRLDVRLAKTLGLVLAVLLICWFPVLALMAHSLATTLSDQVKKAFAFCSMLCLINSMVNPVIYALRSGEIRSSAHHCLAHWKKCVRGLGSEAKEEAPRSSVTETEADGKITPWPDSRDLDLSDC
Protocol: Compounds of the present disclosure were tested for CB1 receptor binding affinity and for CB2 receptor binding affinity. As used herein, “binding affinity” is represented by the IC50 value, which was experimentally determined as described herein. The lower the IC50 value the higher the binding affinity. A compound of the present disclosure may be said to have “binding selectivity” if it has a higher binding affinity for one receptor compared to the other.
The membranes were prepared from CHO-K1 (Chinese hamster ovary) cells stably transfected with the human CB2 receptor (Cat. #ES-111-C; Perkin Elmer, Boston, Mass.). The cells were grown adherently and maintained in Ham's F12 medium containing 10% fetal bovine serum (FBS), penicillin, streptomycin and geneticin (G418) at 37° C. in a humid atmosphere of 5% CO2 following the manufacturer's instructions.
For membrane preparation the cells were washed with PBS and scraped off the plates in cold homogenization buffer (25 mM HEPES (pH 7.4), 2 mM EDTA) containing protease inhibitor cocktail (Sigma Cat. #P8340). The cell suspension was homogenized with a Pro-PK-01200D Polytron Homogenizer (Pro Scientific) and then centrifuged for 30 min at 120,000× g. The supernatant was discarded and the pellet was re-suspended in the homogenization buffer and stored at −80° C. until the time of use.
In this experiment, 3H radiolabeled CP55,940, i.e. [3H]CP55,940 (Perkin Elmer, Boston, Mass.), was used as a radioligand for the CB2 receptor to determine the binding affinity of compounds for the CB2 receptor (Scheme 4; above).
The competition binding experiments (single dose and dose-response) were performed by incubating 0.6 nM of [3H]CP55,940 (specific activity 101 Ci/mmol, Perkin Elmer) and different concentrations of compounds disclosed herein with membranes prepared as above from CHO-K1 cells expressing human CB2 receptor (1 μg of protein/well), 50 mM Tris-HCl (pH 7.4), 5 mM MgCl2, 1 mM CaCl2, and 2 mg/mL BSA.
For the single dose experiments, the compound stocks (usually 10 mM in DMSO) were diluted to working stocks in the binding buffer to give the final compound concentrations of 10 μM and 1 μM. For the dose-response experiments the test compounds were sequentially diluted to provide the desired concentration range for the IC50 determination. In each case the compounds were pre-incubated with the membrane for 20 min, before adding the radioligand.
After incubation with the radioligand for 60 min at 37° C., the incubation was terminated by rapid filtration of assay mixture through MultiScreen®HTS^+ 96-well filter plates (Millipore, Cat. #MSFCNXB), pre-soaked for 60 min with 50 mM Tris-HCl (pH 7.4) containing 0.33% polyethylenimine (PEI). The nonspecific binding (NSB) was determined in the presence of 10 μM unlabelled CP55,940. After drying the filter plate at 50° C. for at least 60 min, the filter-bound radioactivity was determined by scintillation spectrometry using the 1450 MicroBeta Plate Counter (Perkin Elmer, Boston, Mass.). From the dose-response experiments, the IC50 values were determined (see Table 1, CB2 IC50).

[3] = biological target: T1, human CB1 receptor; experiment: PathHunter β-Arrestin functional assay, CB1 receptor, antagonist mode; format: cell-based
Description: (§1) In the PathHunter® β-Arrestin system from DiscoveRx (Eurofins, Fremont, Calif.), a small peptide, the ProLink™ (PK), is fused to the intracellular sequence of a GPCR target, and a complementing peptide, the enzyme acceptor (EA) fragment, is fused to β-arrestin. After binding to its specific ligand, the GPCR target recruits β-arrestin, forcing the complementation of the two β-galactosidase enzyme fragments (EA and PK) to produce a functional β-galactosidase enzyme. The enzyme activity, and thus the amount of ligand bound to the GPCR, is detected with a single addition of a reagent cocktail to lyse the cells and produce a chemiluminescent signal before being analyzed using a traditional plate reader.
(§2) PathHunter® CHO-K1 CNR1 β-Arrestin cells (DiscoverRx, cat. Number 93-0959C2) stably expressing CB1 receptor (CB1R) were grown in Ham's F12 medium containing 10% fetal bovine serum (FBS), 1% penicillin/streptomycin, 300 μg/mL Hygromycin B and 800 μg/mL geneticin (G418) and maintained in 37° C. incubators at 5% CO2. […]
(§3) The incubation was terminated by adding the detection reagent (19 parts of 1% CHAPS, 5 parts Emerald-II and 1 part Galacton-Star), equivalent to 50% of the assay volume to each wells. Plates were incubated for 1 hour in the dark at room temperature, followed by chemiluminescence detection using a microplate reader.
(§4) Data were analysed by generating nonlinear regression curves. […]

[4] = biological target: T1, human CB1 receptor; experiment: PathHunter β-Arrestin functional assay, CB1 receptor, agonist mode; format: cell-based
Description: as §1, §2, §3, §4

Question: `CCCCCc1cc2c(c3c1C(=O)OCO3)[C@@H]1C=C(C)CC[C@H]1C(C)(C)O2` [Compound 1b, 8,8,11-trimethyl-5-pentyl-8a,9,10,12a-tetrahydro-4H,8H-benzo[c][1,3]dioxino[4,5-f]chromen-4-one] was tested. Which pIC50 [1] did it give?
Answer: The pIC50 was 6.00 to 6.30.

Question: What about the pIC50 [2] of the same compound?
Answer: Its pIC50 is over 6.30.

Question: And the “Selectivity CB2” value [2]?
Answer: The value was 1.80 fold.

Question: Which results are given for `CCCCCc1cc2c(c3c1C(=O)OC(C)(C)O3)[C@@H]1C=C(C)CC[C@H]1C(C)(C)O2` [Compound 2b, 2,2,8,8,11-pentamethyl-5-pentyl-8a,9,10,12a-tetrahydro-4H,8H-benzo[c][1,3]dioxino[4,5-f]chromen-4-one]?
Answer: pIC50 [1]: > 6.30; pIC50 [2]: > 6.30; Selectivity CB2 [2]: 1.03 fold

Question: Which results are given for `CCCCCc1cc2c(c3c1C(=O)OC(c1ccccc1)O3)[C@@H]1C=C(C)CC[C@H]1C(C)(C)O2` (stereo partly shown) [Compound 3b, 8,8,11-trimethyl-5-pentyl-2-phenyl-8a,9,10,12a-tetrahydro-4H,8H-benzo[c][1,3]dioxino[4,5-f]chromen-4-one]?
Answer: pIC50 [1]: 5.30 to 6.00; Selectivity CB1 [1]: 1.62 fold; pIC50 [2]: 5.30 to 6.00

Question: What does the source list for `CCCCCc1cc2c(c3c1C(=O)OC(CC(C)=O)(c1ccccc1)O3)[C@@H]1C=C(C)CC[C@H]1C(C)(C)O2` (stereo partly shown) [Compound 12b, 8,8,11-trimethyl-2-(2-oxopropyl)-5-pentyl-2-phenyl-8a,9,10,12a-tetrahydro-4H,8H-benzo[c][1,3]dioxino[4,5-f]chromen-4-one]?
Answer: pIC50 [1]: < 5.30; pIC50 [2]: < 5.30; Selectivity CB2 [2]: 1.33 fold

Question: What does the source list for `CCCCCc1cc2c(c3c1C(=O)OC(CC(C)=O)(c1ccc(F)cc1)O3)[C@@H]1C=C(C)CC[C@H]1C(C)(C)O2` (stereo partly shown) [Compound 13b, 2-(4-fluorophenyl)-8,8,11-trimethyl-2-(2-oxopropyl)-5-pentyl-8a,9,10,12a-tetrahydro-4H,8H-benzo[c][1,3]dioxino[4,5-f]chromen-4-one]?
Answer: pIC50 [1]: 5.30 to 6.00; Selectivity CB1 [1]: 1.00 fold; pIC50 [2]: 5.30 to 6.00; Selectivity CB2 [2]: 1.00 fold

Question: How did the pIC50 [1] turn out when `CCCCCc1cc2c(c3c1C(=O)OC(CC(C)=O)O3)[C@@H]1C=C(C)CC[C@H]1C(C)(C)O2` (stereo partly shown) [Compound 14b, 8,8,11-trimethyl-2-(2-oxopropyl)-5-pentyl-8a,9,10,12a-tetrahydro-4H,8H-benzo[c][1,3]dioxino[4,5-f]chromen-4-one] was run?
Answer: The pIC50 was 5.30 to 6.00.

Question: What about the “Selectivity CB1” value [1] of the same compound?
Answer: The value was 2.69 fold.

Question: What about the pIC50 [2] of the same compound?
Answer: The pIC50 was 5.30 to 6.00.

Question: What does the source list for `CCCCCc1cc2c(c3c1C(=O)OC(C)O3)[C@@H]1C=C(C)CC[C@H]1C(C)(C)O2` (stereo partly shown) [Compound 16b, 2,8,8,11-tetramethyl-5-pentyl-8a,9,10,12a-tetrahydro-4H,8H-benzo[c][1,3]dioxino[4,5-f]chromen-4-one]?
Answer: pIC50 [1]: > 6.30; Selectivity CB1 [1]: 1.50 fold; pIC50 [3]: ~5.52; relative inhibition in comparison to rimonabant ([3]; antagonist mode, normalized to rimonabant): about 35%; pEC50 [4]: ~6.60; relative efficacy in comparison to CP55,940 ([4]; agonist mode, normalized to CP55,940): about 7%; pIC50 [2]: > 6.30

Question: `CCCCCc1cc2c(c3c1C(=O)OC(CC)O3)[C@@H]1C=C(C)CC[C@H]1C(C)(C)O2` (stereo partly shown) [Compound 17b, 2-ethyl-8,8,11-trimethyl-5-pentyl-8a,9,10,12a-tetrahydro-4H,8H-benzo[c][1,3]dioxino[4,5-f]chromen-4-one] was tested. Which pIC50 [1] did it give?
Answer: Its pIC50 is 5.30 to 6.00.

Question: What about the pIC50 [2] of the same compound?
Answer: Its pIC50 is over 6.30.

Question: And the “Selectivity CB2” value [2]?
Answer: Its value is 12.73 fold.

Question: `CCCCCc1cc2c(c3c1C(=O)OC(CC(C)=O)(c1ccc(OC)cc1)O3)[C@@H]1C=C(C)CC[C@H]1C(C)(C)O2` (stereo partly shown) [Compound 21b, 2-(4-methoxyphenyl)-8,8,11-trimethyl-2-(2-oxopropyl)-5-pentyl-8a,9,10,12a-tetrahydro-4H,8H-benzo[c][1,3]dioxino[4,5-f]chromen-4-one] was tested. Which pIC50 [1] did it give?
Answer: The pIC50 was 5.30 to 6.00.

Question: What about the “Selectivity CB1” value [1] of the same compound?
Answer: The value was 1.00 fold.

Question: What about the pIC50 [2] of the same compound?
Answer: Its pIC50 is 5.30 to 6.00.

Question: And the “Selectivity CB2” value [2]?
Answer: Its value is 1.00 fold.

Question: How did the pIC50 [1] turn out when `CCCCCc1cc2c(c3c1C(=O)OC(CC(C)=O)(c1ccc(Cl)cc1)O3)[C@@H]1C=C(C)CC[C@H]1C(C)(C)O2` (stereo partly shown) [Compound 23b, 2-(4-chlorophenyl)-8,8,11-trimethyl-2-(2-oxopropyl)-5-pentyl-8a,9,10,12a-tetrahydro-4H,8H-benzo[c][1,3]dioxino[4,5-f]chromen-4-one] was run?
Answer: The pIC50 was 5.30 to 6.00.

Question: And the “Selectivity CB1” value [1]?
Answer: Its value is 1.00 fold.

Question: And the pIC50 [2]?
Answer: Its pIC50 is 5.30 to 6.00.

Question: And the “Selectivity CB2” value [2]?
Answer: Its value is 1.00 fold.
